For assay [1], the system named is Staphylococcus aureus FDA 209P. Nature of the assay: MIC, serial dilution on nutrient agar. The format is cell-based. The following applies: FDA209P; Staphylococcus aureus FDA 209P; nutrient agar, 37°C, 18 hours; read-out: Minimum Inhibitory Concentrations.
The subject of assay [2] is Mycobacterium smegmatis ATCC 607. Nature of the assay: MIC, serial dilution on nutrient agar. The note with it: Mycolicibacterium smegmatis, ATCC607; Mycobacterium smegmatis ATCC 607; nutrient agar, 37°C, 18 hours; read-out: Minimum Inhibitory Concentrations. The format is cell-based.
Assay [3] concerns Escherichia coli K-12 ML 1630. Description: MIC, serial dilution on nutrient agar. It is filed as cell-based. The note with it: K12ML1630, 37°C, 18 hours, read-out: Minimum Inhibitory Concentrations. On the procedure: The minimum inhibitory concentrations (mcg/ml) of 1,2'-di-N-[(S)-4-amino-2-hydroxybutyryl]-kanamycin B (abbreviated as 1,2'-AHB-KMB), 1,2'-di-N-[(S)-4-amino-2-hydroxybutyryl]-3',4'-dideoxykanamycin B (abbreviated as 1,2'-AHB-DKB), 1,2'-di-N-DL-isoseryl-3',4'-dideoxykanamycin B (abbreviated as 1,2'-IS-DKB) and 1,2'-di-N-DL-isoseryl-kanamycin B (abbreviated as 1,2'-IS-KMB) against various microorganisms were determined according to serial dilution method using nutrient agar medium at 37°C, the estimation being effected after 18 hours incubation. For comparison, the minimum inhibitory concentrations of kanamycin B (abbreviated as KMB) and 3',4'-dideoxykanamycin B (abbreviated as DKB) were also determined in the same manner as mentioned above.

Assay [4] concerns Klebsiella pneumoniae PCI 602. Description: MIC, serial dilution on nutrient agar. It is filed as cell-based. The note with it: PCI602; Klebsiella pneumoniae PCI 602; nutrient agar, 37°C, 18 hours; read-out: Minimum Inhibitory Concentrations.
Assay [5] concerns Klebsiella pneumoniae 22 -3038. Description: MIC, serial dilution on nutrient agar. The format is cell-based. The note with it: 223038; Klebsiella pneumoniae 22 -3038; nutrient agar, 37°C, 18 hours; read-out: Minimum Inhibitory Concentrations.
For a further assay, the system named is Escherichia coli NIHJ. Nature of the assay: MIC, serial dilution on nutrient agar. The note with it: Escherichia coli NIHJ; nutrient agar, 37°C, 18 hours; read-out: Minimum Inhibitory Concentrations. It is filed as cell-based.
For another assay, the system named is Escherichia coli K-12. Description: MIC, serial dilution on nutrient agar. The following applies: K12; Escherichia coli K-12; nutrient agar, 37°C, 18 hours; read-out: Minimum Inhibitory Concentrations. It is filed as cell-based.
For assay [6], the system named is Escherichia coli K-12 ML 1629. Description: MIC, serial dilution on nutrient agar. The format is cell-based. The note with it: K12ML1629; Escherichia coli K-12 ML 1629; nutrient agar, 37°C, 18 hours; read-out: Minimum Inhibitory Concentrations.
Assay [7] has as its system Escherichia coli K-12 ML 1410. Nature of the assay: MIC, serial dilution on nutrient agar. It is filed as cell-based. The following applies: K12ML1410; Escherichia coli K-12 ML 1410; nutrient agar, 37°C, 18 hours; read-out: Minimum Inhibitory Concentrations.
For assay [8], the system named is Escherichia coli LA290 R55. Description: MIC, serial dilution on nutrient agar. It is filed as cell-based. The note with it: LA290R55, 18 h, read-out: Minimum Inhibitory Concentrations.
The subject of assay [9] is Escherichia coli LA290 R56. Description: MIC, serial dilution on nutrient agar. The format is cell-based. The note with it: LA290R56, 18 h, read-out: Minimum Inhibitory Concentrations.
The test system of assay [10] is Escherichia coli LA290 R64. Description: MIC, serial dilution on nutrient agar. It is filed as cell-based. The following applies: LA290R64, 18 h, read-out: Minimum Inhibitory Concentrations.
The next assay concerns Escherichia coli W677. Nature of the assay: MIC, serial dilution on nutrient agar. The format is cell-based. The following applies: Escherichia coli W677; nutrient agar, 37°C, 18 hours; read-out: Minimum Inhibitory Concentrations.
For assay [11], the system named is Escherichia coli JR66/W677. Nature of the assay: MIC, serial dilution on nutrient agar. The format is cell-based. The note with it: Escherichia coli JR66/W677; nutrient agar, 37°C, 18 hours; read-out: Minimum Inhibitory Concentrations.
Assay [12] concerns Pseudomonas aeruginosa A3. Nature of the assay: MIC, serial dilution on nutrient agar. It is filed as cell-based. The following applies: Pseudomonas aeruginosa A3; nutrient agar, 37°C, 18 hours; read-out: Minimum Inhibitory Concentrations.
The subject of assay [13] is Pseudomonas aeruginosa No.12. Description: MIC, serial dilution on nutrient agar. It is filed as cell-based. The note with it: Pseudomonas aeruginosa No.12; nutrient agar, 37°C, 18 hours; read-out: Minimum Inhibitory Concentrations.
Assay [14] concerns Pseudomonas aeruginosa TI-13. Description: MIC, serial dilution on nutrient agar. It is filed as cell-based. The following applies: TI13; Pseudomonas aeruginosa TI-13; nutrient agar, 37°C, 18 hours; read-out: Minimum Inhibitory Concentrations.
Assay [15] relates to Pseudomonas aeruginosa GN315. Nature of the assay: MIC, serial dilution on nutrient agar. It is filed as cell-based. The following applies: Pseudomonas aeruginosa GN315; nutrient agar, 37°C, 18 hours; read-out: Minimum Inhibitory Concentrations.
Assay [16] relates to Pseudomonas aeruginosa 99. Nature of the assay: MIC, serial dilution on nutrient agar. The note with it: Pseudomonas aeruginosa 99; nutrient agar, 37°C, 18 hours; read-out: Minimum Inhibitory Concentrations. The format is cell-based.
The next assay concerns drug-resistant bacteria. The note with it: cited from earlier work.

Bounds are passed on as bounds.

For the molecule `NCC(O)C(=O)N[C@@H]1CC[C@@H](CN)O[C@@H]1O[C@H]1[C@H](O)[C@@H](O[C@H]2O[C@H](CO)[C@@H](O)[C@H](N)[C@H]2O)[C@H](NC(=O)C(O)CN)C[C@@H]1N` (mixture of isomers) [1,2'-IS-DKB, 1,2'-di-N-DL-isoseryl-3',4'-dideoxykanamycin B], the MIC was found to be 1.56 µg/mL in assay [1]; 1.56 µg/mL in assay [2]; 6.25 µg/mL in assay [3]; 3.13 µg/mL in [4]; 12.5 µg/mL in assay [5]; 6.25 µg/mL in the assay with Escherichia coli NIHJ. For the same molecule, the MIC (in the assay on Escherichia coli K-12; in [6]; in assay [7]; in assay [8]; in assay [9]; in [10]) was 6.25 µg/mL throughout. Besides, the MIC with Escherichia coli W677 was 3.13 µg/mL; in assay [11], 12.5 µg/mL; in assay [12], 6.25 µg/mL; in [13] it was 25 µg/mL; in assay [14] it was 12.5 µg/mL; in [15], above 100 µg/mL. The MIC in assay [16] worked out at 50 µg/mL.

As to `NCC(O)C(=O)N[C@H]1[C@@H](O[C@H]2[C@H](O)[C@@H](O[C@H]3O[C@H](CO)[C@@H](O)[C@H](N)[C@H]3O)[C@H](NC(=O)C(O)CN)C[C@@H]2N)O[C@H](CN)[C@@H](O)[C@@H]1O` (mixture of isomers) [1,2'-IS-KMB, 1,2'-di-N-DL-isoseryl-kanamycin B], the MIC in assay [1] came to 3.13 µg/mL; in assay [2], 1.56 µg/mL; in [3] it was 6.25 µg/mL; in assay [4], 3.13 µg/mL; in assay [5], 12.5 µg/mL; with Escherichia coli NIHJ, 6.25 µg/mL. Also, the MIC (in the assay with Escherichia coli K-12; in assay [6]; in assay [7]; in assay [8]; in assay [9]; in assay [10]) was 6.25 µg/mL each time. Besides, the MIC is 3.13 µg/mL with Escherichia coli W677; 25 µg/mL in [11]; 12.5 µg/mL in assay [12]; 25 µg/mL in assay [13]; 12.5 µg/mL in [14]; above 100 µg/mL in assay [15]. Further, the MIC in assay [16] amounted to 50 µg/mL.

In the case of `NC[C@@H]1CC[C@@H](N)[C@@H](O[C@H]2[C@H](O)[C@@H](O)[C@H](N)C[C@@H]2N)O1` [3',4'-dideoxyneamine], the “antibacterial activity against the drug-resistant bacteria” value (“antibacterial activity” below) with drug-resistant bacteria is “improved antibacterial activity”.

Turning to `NC[C@@H]1CC[C@@H](N)[C@@H](O[C@H]2[C@H](O[C@@H]3O[C@H](CO)[C@@H](O)[C@H]3O)[C@@H](O)[C@H](N)C[C@@H]2N)O1` [3',4'-dideoxyribostamycin], the “antibacterial activity” value with drug-resistant bacteria is listed as “improved antibacterial activity”.

`CNC[C@H]1O[C@H](O[C@H]2[C@H](O)[C@@H](O[C@H]3O[C@H](CO)[C@@H](O)[C@H](N)[C@H]3O)[C@H](N)C[C@@H]2N)[C@H](N)C[C@@H]1O` [3'-deoxy-6'-N-methylkanamycin B]: the “antibacterial activity” value in the assay on drug-resistant bacteria was “improved antibacterial activity”.

For `NC[C@H]1O[C@H](O[C@H]2[C@H](O)[C@@H](O[C@H]3O[C@H](CO)[C@@H](O)[C@H](N)[C@H]3O)[C@H](N)C[C@@H]2N)[C@H](N)C[C@@H]1O` [3'-deoxykanamycin B], the “antibacterial activity” value in the assay with drug-resistant bacteria is “improved antibacterial activity”.

On to `NC[C@H]1O[C@H](O[C@H]2[C@H](O)[C@@H](O)[C@H](N)C[C@@H]2N)[C@H](N)C[C@@H]1O` [3'-deoxyneamine], for which the “antibacterial activity” value with drug-resistant bacteria is listed as “improved antibacterial activity”.

On to `NC[C@H]1O[C@H](O[C@H]2[C@H](O[C@@H]3O[C@H](CO)[C@@H](O)[C@H]3O)[C@@H](O)[C@H](N)C[C@@H]2N)[C@H](N)C[C@@H]1O` [3'-deoxyribostamycin], for which the “antibacterial activity” value in the assay with drug-resistant bacteria is reported as “improved antibacterial activity”.

The record behind these values is patent US3940382A, “1,2'-Di-N-substituted kanamycin B compounds” (Zaidan Hojin Biseibutsu Kagaku Kenkyu Kai, priority 1973, dated 1976).
